Laboratory results as given in patent US20230148214A1, “INDAZOLES AND AZAINDAZOLES AS LRRK2 INHIBITORS” (ESCAPE Bio, Inc., priority 2020, published 2023).

target: T1, LRRK2 WT (Homo sapiens, UniProt Q5S007); test: LRRK2 Kinase Activity Assay (LanthaScreen TR-FRET), wild type; type: biochemical; conditions: recombinant wild type LRRK2, 25 μM ATP, 400 nM LRRKtide, 60 min; class symbols
T1 construct: purchased Life Technologies PR8604B
Procedure: LRRK2 kinase activity was measured using a LanthaScreen™ Kinase Activity Assay from ThermoFisher Scientific. Recombinant wild type or G2019S-LRRK2 protein (Life Technologies, PR8604B or PV4881, respectively), was incubated with a fluorescein-labeled peptide substrate called LRRKtide that is based upon ezrin/radixin/moesin (ERM) (Life Technologies, PV4901) in the presence of ATP and serially diluted compound. […] Compound-dependent inhibition of the TR-FRET signal was used to generate a concentration-response curve for IC50 determination.
After 60 min incubation at room temperature, the reaction was stopped by addition of 10 μL of 2×stop solution containing a final concentration of 2 nM anti-pERM antibody and 10 mM EDTA.

T1 sequence (Q5S007 whole entry): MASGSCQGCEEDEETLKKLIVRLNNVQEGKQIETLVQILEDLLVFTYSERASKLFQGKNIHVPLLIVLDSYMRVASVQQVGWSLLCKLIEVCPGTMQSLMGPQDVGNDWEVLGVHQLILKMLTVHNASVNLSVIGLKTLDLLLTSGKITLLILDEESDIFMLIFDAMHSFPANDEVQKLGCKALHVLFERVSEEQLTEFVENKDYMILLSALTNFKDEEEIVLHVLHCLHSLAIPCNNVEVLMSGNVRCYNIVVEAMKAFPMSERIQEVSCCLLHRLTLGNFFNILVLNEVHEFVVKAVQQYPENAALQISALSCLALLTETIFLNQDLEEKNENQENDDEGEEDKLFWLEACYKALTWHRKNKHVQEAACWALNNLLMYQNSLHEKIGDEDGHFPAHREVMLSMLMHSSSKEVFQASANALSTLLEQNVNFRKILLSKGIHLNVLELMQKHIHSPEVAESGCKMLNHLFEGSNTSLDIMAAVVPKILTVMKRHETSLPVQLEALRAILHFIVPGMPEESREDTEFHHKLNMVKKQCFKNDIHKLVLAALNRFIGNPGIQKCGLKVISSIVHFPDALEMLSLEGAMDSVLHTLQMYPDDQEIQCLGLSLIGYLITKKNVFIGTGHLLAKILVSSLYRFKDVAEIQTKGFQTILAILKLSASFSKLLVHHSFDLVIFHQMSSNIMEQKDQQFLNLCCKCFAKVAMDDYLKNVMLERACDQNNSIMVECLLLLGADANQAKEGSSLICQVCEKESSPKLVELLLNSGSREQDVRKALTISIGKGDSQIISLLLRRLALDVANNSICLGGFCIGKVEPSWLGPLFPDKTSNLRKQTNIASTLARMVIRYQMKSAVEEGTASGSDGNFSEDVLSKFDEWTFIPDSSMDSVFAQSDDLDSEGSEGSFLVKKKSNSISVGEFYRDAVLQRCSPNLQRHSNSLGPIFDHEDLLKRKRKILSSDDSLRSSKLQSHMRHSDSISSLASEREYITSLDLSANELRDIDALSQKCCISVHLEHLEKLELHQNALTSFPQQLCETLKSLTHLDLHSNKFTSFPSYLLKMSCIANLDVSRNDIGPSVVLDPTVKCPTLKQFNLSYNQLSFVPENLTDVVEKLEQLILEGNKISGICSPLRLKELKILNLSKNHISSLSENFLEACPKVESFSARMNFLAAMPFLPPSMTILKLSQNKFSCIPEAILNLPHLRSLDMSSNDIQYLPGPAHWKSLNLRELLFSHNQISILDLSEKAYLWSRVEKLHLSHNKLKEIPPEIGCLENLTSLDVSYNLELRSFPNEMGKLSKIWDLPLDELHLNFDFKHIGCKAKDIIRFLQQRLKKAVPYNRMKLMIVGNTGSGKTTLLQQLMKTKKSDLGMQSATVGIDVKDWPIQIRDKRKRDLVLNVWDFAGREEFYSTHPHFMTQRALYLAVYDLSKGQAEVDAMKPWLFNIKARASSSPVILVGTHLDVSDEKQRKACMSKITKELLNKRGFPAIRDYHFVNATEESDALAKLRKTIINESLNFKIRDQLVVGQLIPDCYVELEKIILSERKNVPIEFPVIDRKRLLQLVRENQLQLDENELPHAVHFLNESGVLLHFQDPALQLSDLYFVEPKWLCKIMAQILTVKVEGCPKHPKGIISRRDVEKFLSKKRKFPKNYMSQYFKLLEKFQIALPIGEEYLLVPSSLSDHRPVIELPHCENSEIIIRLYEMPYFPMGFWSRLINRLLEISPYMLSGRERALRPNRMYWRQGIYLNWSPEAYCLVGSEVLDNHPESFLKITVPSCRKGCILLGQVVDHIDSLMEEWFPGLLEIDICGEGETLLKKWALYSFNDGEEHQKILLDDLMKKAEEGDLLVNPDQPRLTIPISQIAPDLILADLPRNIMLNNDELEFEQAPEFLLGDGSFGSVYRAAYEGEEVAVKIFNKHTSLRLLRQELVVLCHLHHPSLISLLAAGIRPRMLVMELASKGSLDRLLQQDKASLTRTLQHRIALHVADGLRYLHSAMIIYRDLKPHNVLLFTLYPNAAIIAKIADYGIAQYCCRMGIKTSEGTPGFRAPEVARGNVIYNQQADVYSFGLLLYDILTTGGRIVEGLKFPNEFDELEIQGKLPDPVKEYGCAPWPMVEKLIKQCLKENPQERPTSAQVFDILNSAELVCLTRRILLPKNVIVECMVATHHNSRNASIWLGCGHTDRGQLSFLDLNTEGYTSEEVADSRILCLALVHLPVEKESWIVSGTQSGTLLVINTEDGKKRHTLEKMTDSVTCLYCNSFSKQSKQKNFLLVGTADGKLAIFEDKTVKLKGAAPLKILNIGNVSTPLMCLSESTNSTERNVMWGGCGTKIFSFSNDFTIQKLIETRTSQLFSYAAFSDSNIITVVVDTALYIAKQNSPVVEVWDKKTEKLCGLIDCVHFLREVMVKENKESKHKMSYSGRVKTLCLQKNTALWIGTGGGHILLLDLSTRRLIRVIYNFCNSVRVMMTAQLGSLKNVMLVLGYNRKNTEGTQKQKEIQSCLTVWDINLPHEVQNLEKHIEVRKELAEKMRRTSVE

IC50	SMILES
< 100 nM	Cc1c(C#N)ccc2c1CC[C@@H]2Nc1ccc2[nH]nc(-c3cnn(C(F)F)c3)c2c1 (single isomer, unassigned) [Example 52, enantiomer 2, 1-((3-(1-(Difluoromethyl)-1H-pyrazol-4-yl)-1H-indazol-5-yl)amino)-4-methyl-2,3-dihydro-1H-indene-5-carbonitrile]
< 100 nM	COc1c(C#N)ccc2c1CCC[C@@H]2Nc1ccc2[nH]nc(-c3cnco3)c2c1 (single isomer, unassigned) [Example 101, enantiomer 2, 1-Methoxy-5-{[3-(1,3-oxazol-5-yl)-1H-indazol-5-yl]amino}-5,6,7,8-tetrahydronaphthalene-2-carbonitrile]
< 100 nM	N#Cc1cnc2c(c1)CC[C@@H]2Oc1ccc2[nH]nc(-c3cnco3)c2c1 (single isomer, unassigned) [Example 103, enantiomer 2, 7-((3-(Oxazol-5-yl)-1H-indazol-5-yl)oxy)-6,7-dihydro-5H-cyclopenta[b]pyridine-3-carbonitrile]
< 100 nM	Cc1nc2c(cc1C#N)CCC[C@@H]2Nc1ccc2[nH]nc(-c3cnco3)c2c1 (single isomer, unassigned) [Example 106, enantiomer 2, 2-Methyl-8-((3-(oxazol-5-yl)-1H-indazol-5-yl)amino)-5,6,7,8-tetrahydroquinoline-3-carbonitrile]
< 100 nM	Cc1c(C#N)cnc2c1CC[C@@H]2Nc1ccc2[nH]nc(-c3cnco3)c2c1 (single isomer, unassigned) [Example 108, enantiomer 2, 4-Methyl-7-((3-(oxazol-5-yl)-1H-indazol-5-yl)amino)-6,7-dihydro-5H-cyclopenta[b]pyridine-3-carbonitrile]
< 100 nM	N#Cc1cc2c(nc1Cl)[C@@H](Nc1ccc3[nH]nc(-c4cnco4)c3c1)CCC2 (single isomer, unassigned) [Example 112, enantiomer 2, 2-Chloro-8-((3-(oxazol-5-yl)-1H-indazol-5-yl)amino)-5,6,7,8-tetrahydroquinoline-3-carbonitrile]
< 100 nM	COc1c(C#N)ccc2c1CC[C@@H]2Nc1ccc2[nH]nc(-c3cnco3)c2c1 (single isomer, unassigned) [Example 113, enantiomer 2, 4-Methoxy-1-((3-(oxazol-5-yl)-1H-indazol-5-yl)amino)-2,3-dihydro-1H-indene-5-carbonitrile]
< 100 nM	CCc1cc(-c2n[nH]c3ccc(N[C@H]4CCCc5cc(C#N)ccc54)cc23)ccn1 (single isomer, unassigned) [Example 116, enantiomer 2, 5-((3-(2-Ethylpyridin-4-yl)-1H-indazol-5-yl)amino)-5,6,7,8-tetrahydronaphthalene-2-carbonitrile]
< 100 nM	Cc1c(C#N)ccc2c1CC[C@H]2Nc1ccc2[nH]nc(-c3cnoc3)c2c1 (single isomer, unassigned) [Example 118, enantiomer 2, 1-((3-(Isoxazol-4-yl)-1H-indazol-5-yl)amino)-4-methyl-2,3-dihydro-1H-indene-5-carbonitrile]
< 100 nM	N#Cc1ccc2c(c1)CCC[C@H]2Nc1ccc2[nH]nc(-c3cnco3)c2c1 (single isomer, unassigned) [Example 119, enantiomer 2, 5-((3-(Oxazol-5-yl)-1H-indazol-5-yl)amino)-5,6,7,8-tetrahydronaphthalene-2-carbonitrile]
< 100 nM	N#Cc1cnc2c(c1)CCC[C@H]2Nc1ccc2[nH]nc(-c3cnco3)c2c1 (single isomer, unassigned) [Example 120, enantiomer 2, 8-((3-(Oxazol-5-yl)-1H-indazol-5-yl)amino)-5,6,7,8-tetrahydroquinoline-3-carbonitrile]
< 100 nM	CCc1cc(-c2n[nH]c3ccc(O[C@@H]4CCCc5cc(C#N)cnc54)cc23)ccn1 (single isomer, unassigned) [Example 121, enantiomer 2, 8-((3-(2-Ethylpyridin-4-yl)-1H-indazol-5-yl)oxy)-5,6,7,8-tetrahydroquinoline-3-carbonitrile]
< 100 nM	N#Cc1cc2c(cn1)[C@H](Oc1ccc3[nH]nc(-c4cnco4)c3c1)CCC2 (single isomer, unassigned) [Example 122, enantiomer 2, 8-((3-(Oxazol-5-yl)-1H-indazol-5-yl)oxy)-5,6,7,8-tetrahydroisoquinoline-3-carbonitrile]
< 100 nM	COc1cc(-c2n[nH]c3ccc(O[C@H]4CCCc5cc(C#N)cnc54)cc23)ccn1 (single isomer, unassigned) [Example 123, enantiomer 2, 8-((3-(2-Methoxypyridin-4-yl)-1H-indazol-5-yl)oxy)-5,6,7,8-tetrahydroquinoline-3-carbonitrile]
100 to 1000 nM	Cc1c(C#N)ccc2c1CC[C@@H]2Nc1ccc2[nH]nc(I)c2c1 (single isomer, unassigned) [Example 127, enantiomer 2, 1-((3-Iodo-1H-indazol-5-yl)amino)-4-methyl-2,3-dihydro-1H-indene-5-carbonitrile]
100 to 1000 nM	Cc1n[nH]c2ccc(N[C@H]3CCc4c(C#N)cccc43)cc12 (single isomer, unassigned) [Example 129, enantiomer 2, 1-((3-Methyl-1H-indazol-5-yl)amino)-2,3-dihydro-1H-indene-4-carbonitrile]
< 100 nM	Cc1cc(C#N)cc2c1[C@@H](Nc1ccc3[nH]nc(-c4cnco4)c3c1)CC2 (single isomer, unassigned) [Example 131, enantiomer 2, 7-Methyl-1-((3-(oxazol-5-yl)-1H-indazol-5-yl)amino)-2,3-dihydro-1H-indene-5-carbonitrile]
< 100 nM	N#Cc1cc(F)c2c(c1)CC[C@H]2Nc1ccc2[nH]nc(-c3cnco3)c2c1 (single isomer, unassigned) [Example 132, enantiomer 2, 5-((5-Cyano-7-fluoro-2,3-dihydro-1H-inden-1-yl)amino)-3-(oxazol-5-yl)-1H-indazol-2-ium]
< 100 nM	N#Cc1cnc2c(c1)CCC[C@@H]2Oc1ccc2[nH]nc(-c3cnn(C(F)F)c3)c2c1 (single isomer, unassigned) [Example 141, enantiomer 2, 8-((3-(1-(Difluoromethyl)-1H-pyrazol-4-yl)-1H-indazol-5-yl)oxy)-5,6,7,8-tetrahydroquinoline-3-carbonitrile]
< 100 nM	N#Cc1cnc2c(c1)CCC[C@@H]2Nc1ccc2[nH]nc(-c3cncs3)c2c1 (single isomer, unassigned) [Example 142, enantiomer 2, 8-((3-(Thiazol-5-yl)-1H-indazol-5-yl)amino)-5,6,7,8-tetrahydroquinoline-3-carbonitrile]
< 100 nM	N#Cc1ccc2c(c1Cl)CCC[C@@H]2Nc1ccc2[nH]nc(-c3cnco3)c2c1 (single isomer, unassigned) [Example 143, enantiomer 2, 1-Chloro-5-((3-(oxazol-5-yl)-1H-indazol-5-yl)amino)-5,6,7,8-tetrahydronaphthalene-2-carbonitrile]
< 100 nM	N#Cc1cnc2c(c1C(F)(F)F)CCC[C@@H]2Nc1ccc2[nH]nc(-c3cnco3)c2c1 (single isomer, unassigned) [Example 145, enantiomer 2, 8-((3-(Oxazol-5-yl)-1H-indazol-5-yl)amino)-4-(trifluoromethyl)-5,6,7,8-tetrahydroquinoline-3-carbonitrile]
